From patent US10792300B2, “Dendritic cell immune receptor activator, method for activating dendritic cell immune receptor, osteoclast formation inhibitor, method for inhibiting osteoclast formation, dendritic cell differentiation/proliferation inhibitor, method for inhibiting dendritic cell differentiation/proliferation, …” (TOKYO UNIVERSITY OF SCIENCE FOUNDATION, priority 2014, dated 2020) come the findings set out here.

The target of test [1] is T1, DCIR-Fc (Mus musculus, UniProt Q9QZ15).
T1 construct: covering the extracellular domain (EC) from 70 to 238 at the amino acid level; made in house; host or cells: HEK293T cells
T1 sequence (Q9QZ15 70-238): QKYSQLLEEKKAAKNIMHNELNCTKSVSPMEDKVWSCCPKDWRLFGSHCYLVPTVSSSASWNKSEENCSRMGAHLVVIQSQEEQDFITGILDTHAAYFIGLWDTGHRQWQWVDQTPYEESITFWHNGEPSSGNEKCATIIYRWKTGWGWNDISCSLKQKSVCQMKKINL
Description: Glycan microarray with evanescent-field fluorescence-assisted detection: binding of DCIR-Fc to glycan probes. On the set-up: species or system murine. The following applies: glycan microarray, DCIR-Fc. The text has this: (§1) Murine DCIR cDNA, covering the extracellular domain (EC) from 70 to 238 at the amino acid level, was subcloned into pFUSE-hIgG2-Fc2 vector (Invitrogen) at Bgl II site. cDNA coding the extracellular domain was generated with a primer set; sense 5′-[…]-3′ (sequence No. 11) and anti-sense 5′-[…]-3′ (sequence No. 12). Site-directed mutations of the CRD domain, in which glutamic acid and serine were replaced to alanine, were established by KOD-Plus-Mutagenesis Kit (TOYOBO). The following primer set was used for the mutagenesis: E197A sense 5′-[…]-3′(sequence No. 13), anti-sense 5′-[…]-3′(sequence No. 14); S199A sense 5′-[…]-3′(sequence No. 15), anti-sense 5′-[…]-3′ (sequence No. 16); E197A/S199A sense 5′-[…]-3′ (sequence No. 17), anti-sense 5′-[…]-3′(sequence No. 18).
(§2) The plasmids were transferred into HEK293T cells by Lipofectamine LTX (Invitrogen), and the cells were incubated in Opti-MEM (Invitrogen) for 15 days and the medium was changed every 3 days. The Fc-chimeric proteins were purified from collected supernatant by affinity chromatography on Protein A-Sepharose (GE Healthcare UK)
(§3) The glycan-protein interaction was detected in a glycan microarray with an evanescent-field fluorescence-assisted detection system. Briefly, glycan probes, including glycoproteins and glycoside-polyacrylamide (PAA), were immobilized on microarray-grade epoxy-activated glass slides (Schott AG) in triplicate spots using a noncontact microarray printing robot, MicroSys 4000 (Genomic Solutions). The glass slides were incubated at 25° C. for 3 hours and washed with a reaction buffer consisting of 25 mM Tris HCl (pH 7.4) containing 0.8% NaCl, 1% (v/v) Triton-X, 1 mM MnCl2, and 1 mM CaCl2 to remove […], followed by blocking in TBS (25 mM Tris-HCl (pH 7.4) with 0.8% NaCl and 1% BSA) at 20° C. for 1 hour. A protein complex of DCIR-Fc, mutant DCIR-Fc, or Fc with Cy3-labelled anti-human Fc antibodies was formed in a reaction buffer at RT by 20 minutes kept in the dark.
(§4) The protein complex was applied to a glass slide at 100 μl per chamber, and was incubated at 20° C. for 3 hours. Without washing, the binding was detected with an evanescent-field activated fluorescence scanner, SC-Profiler (GP Bioscience), and the data was analyzed by the Array Pro analyzer Ver. 4.5 (Media Cybernetics, Inc.) Subtracted raw intensity from background intensity is net intensity, which is presented as the average±s.d. of triplicate spots.

In test [2] the test system is DCIR-Fc. Described as above. On the set-up: species or system murine. The note with it: for Ca2+ and CRD dependency of DCIR-Fc binding: with or without EDTA, CRD mutants; for binding of mutant DCIR-Fc (CRD mutants) to the glycan: glycan microarray.
From the text: as §1, §2, §3, §4

In test [3] the test system is wild-type BMMs. As to the kind of experiment: Osteoclast formation by TRAP staining, wild-type BMMs with M-CSF and RANKL. The format is cell-based, mouse. How it is done:
To form M-CSF-dependent bone marrow-derived macrophages, BM cells were isolated by flushing the bone marrow cavity of femurs with α-minimal essential medium (α-MEM) (Gibco, trade name, Life Technologies), supplemented with penicillin (100 units/ml), streptomycin (100 μg/ml) and 10% heat-inactivated fetal bovine serum. Red blood cells were destroyed in a hemolysis buffer (consisting of 140 mM NH4Cl and 17 mM Tris-HCl, pH 7.2) for 10 minutes on ice, and the treated cells were pre-incubated in a 100 mm dish for 1 hour. The non-adherent cells (hematopoietic cells) were harvested and seeded at 50,000 cells per well in 96-well plates in the presence of 20 ng/ml of recombinant human M-CSF (R&D Systems) for 2 days. The cells proliferated in response to M-CSF were defined as BMMs. […]
Adherent cells were fixed in 10% formalin for 3 minutes, followed by further fixation in a fixative buffer consisting of 50% ethanol and 50% acetone for 1 minute. […] TRAP-positive cells with more than 3 or 10 nuclei were counted as multinucleated osteoclasts.
Wild-type and Dcir−/− BMMs were induced to differentiate osteoclasts in the presence of M-CSF and RANKL. […] The number of osteoclasts was determined by TRAP staining. […] Cell lysates were analyzed by western blotting to detect the phosphorylation levels of signal components. […]

Test [4] deals with wild-type BMMs. As to the kind of experiment: Western blotting of M-CSF- and RANKL-mediated signals, wild-type BMMs. The format is cell-based, mouse. The note with it: wild-type BMMs pre-treated with NA2. How it is done:
(§5) For western blotting of M-CSF- and RANKL-mediated signals, BMMs were re-plated in a 12-well plate at 250,000 cells per well in the presence of 5 ng/ml of M-CSF. 24 hours after the culture, the BMMs were left in a serum-free medium without M-CSF for 6 hours before stimulation. The cells were activated with 20 ng/ml of M-CSF or 100 ng/ml of RANKL for predetermined periods. […]
(§6) Wild-type and Dcir−/− BMMs were induced to differentiate osteoclasts in the presence of M-CSF and RANKL. […] The number of osteoclasts was determined by TRAP staining. […] Cell lysates were analyzed by western blotting to detect the phosphorylation levels of signal components.

For another test, the system named is Dcir−/− BMMs. As to the kind of experiment: Western blotting of M-CSF- and RANKL-mediated signals, Dcir−/− BMMs. The format is cell-based, mouse. The note with it: FIG. 49: Dcir−/− BMMs pre-treated with NA2 1 μg/ml for 6 hours. As for the experimental part:
as §5, §6

The subject of test [5] is Flt3L-induced dendritic cells (DCs). Description: Pro-inflammatory cytokine production by LPS-activated Flt3L-induced dendritic cells (ELISA). It counts as cell-based, mouse. The following applies: 1 μg/ml NA2, 24 hours, versus without NA2. How it is done: Flt3L-induced dendritic cells (DCs) were prepared by the following process. Bone marrow cells were isolated from femurs of wild-type mice. Red blood cells were destroyed in a hemolysis buffer (consisting of 140 mM NH4Cl and 17 mM Tris-HCl, pH 7.2) for 10 minutes on ice. The cells were seeded at 1 million cells per well in 24-well plates in the presence of 100 ng/ml of recombinant human Flt3L in a medium containing 10% FBS, antibiotic mixtures, essential amino acids and 2-mercaptoethanol. At day 4, 100 ng/ml of recombinant human Flt3L (Milteny) was added in each well and further cultured for additional 4 days. At day 8, the cells were harvested and re-seeded at 500,000 cells per well in 96-well plates.
The DCs thus obtained were activated with agonistic reagents (LPS) with or without 1 μg/ml of a NA2 for 24 hours. The supernatants were collected and the amounts of pro-inflammatory cytokines (IL-6 and p40) were determined by ELISA. As a result, the amount of pro-inflammatory cytokines were smaller when the DCs were stimulated by LPS in the presence of a NA2 than without the same (FIG. 50). In FIG. 50, the left-side two bars represent the amounts of pro-inflammatory cytokines without LPS stimulation, and the right-side two bars represent the amounts of pro-inflammatory cytokines with LPS stimulation, where the black bars represent the cases in the presence of a NA2.
On the technique in general: ELISA stands for enzyme-linked immunosorbent assay.

Test [6] deals with primary murine osteoblasts. Description: Effect of IFN-γ on osteoblast formation (alizarin red staining, osteogenic gene expression). It counts as cell-based. The following applies: exogenous addition, dose-dependent. As for the experimental part: Calvarial cells were prepared by sequential digestion followed by a standard method. Briefly, calvavria from 1 to 2-day old neonates were surgically isolated and adherent mesenchymal tissues were trimmed. The neonatal calvaria underwent a first digestion with a degrading solution containing 0.1% collagenase (Wako Pure Chemical Industries) and 0.1% dispase (Roche Diagnostics Japan) for 10 minutes at 37° C. with agitation. The solution was discarded to remove debris, and the remaining calvaria were further digested by the same degrading solution for 1 hour at 37° C. The cells isolated from the serial digestions were suspended in an a-MEM containing 10% FCS, penicillin (100 units/ml) and streptomycin (100 μg/ml), and plated at the concentration of 200,000 cells/well in 12-well plates. Two days after the culture, the cells were incubated in an osteogenic medium (α-MEM supplemented with 10% FBS, 50 μg/ml ascorbic acid (Sigma-Aldrich), 10 mM β-glycerophosphate (Calbiochem) and antibiotics) for 14 days or 21 days, with the medium replaced every 3 days for the entire duration.
Murine osteoblasts were cultured and differentiated according to the protocol as mentioned above. […]
The mineralization formation of osteoblastic cells was detected by the von Kossa method and staining with alizarin red S (sodium alizarin sulphonate). […]

On to asialo-biantennary N-glycan [NA2], for which the “binding of DCIR-Fc to the glycan” value on DCIR-Fc [1] is listed as “bound strongly”. For the same molecule, in the test with DCIR-Fc [2], the “Ca2+ and CRD dependency of DCIR-Fc binding” value (“Ca2+ and CRD dependency” below) is “Ca^2+ and CRD were required”. In addition, in the test on wild-type BMMs [3], the “osteoclast formation in wild-type BMMs” value is listed as “significant decrease”. Also, the “Akt phosphorylation in response to M-CSF and RANKL” value in the test on wild-type BMMs [4] is “decrease”. The “MAPKs and IκBα upon M-CSF and RANKL stimuli” value in the test with Dcir−/− BMMs is “no effect”. Also, in test [5], the “amount of pro-inflammatory cytokine IL-6” value is listed as “smaller” and the “amount of pro-inflammatory cytokine p40” value is listed as “smaller”.

In the case of “asialo-transferrin: glycoprotein probe on the glycan microarray; transferrin without sialic acid”, in the test with DCIR-Fc [1], the “binding of DCIR-Fc to the glycan” value is listed as “bound”. Moreover, in the test with DCIR-Fc [2], the “binding of mutant DCIR-Fc (CRD mutants) to the glycan” value is given as “no binding”; the “Ca2+ and CRD dependency” value is given as “Ca^2+-dependent”.

Regarding heparin, the “binding of DCIR-Fc to the glycan” value on DCIR-Fc [1] is “bound”. In addition, in the test on DCIR-Fc [2], the “binding of mutant DCIR-Fc (CRD mutants) to the glycan” value was “remained bound”; the “Ca2+ and CRD dependency” value is “Ca^2+-dependent”.

B1: IFN-γ: recombinant murine IFN-γ (PeproTech) (protein, UniProt P01580 23-155, looked up)
Interferon gamma: HGTVIESLESLNNYFNSSGIDVEEKSLFLDIWRNWQKDGDMKILQSQIISFYLRLFEVLKDNQAISNNISVIESHLITTFFSNSKAKKDAFMSIAKFEVNNPQVQRQAFNELIRVVHQLLPESSLRKRKRSRC
Consider B1, for which, in test [6], the “alizarin red staining (ability of osteoblasts to mineralize)” value is “augmented”. Moreover, in test [6] (day 14 culture), the “expression of osteogenic genes” value is “augmented”.
